# Assay results as given in US8017792B2, “1-thio-D-glucitol derivatives” (Taisho Pharmaceutical Co., Ltd., priority 2005, dated 2011).
# Structures can show the parent of a compound that is named as a salt.
# Columns and labels:
# [1] = target: T1, Human SGLT1 (Homo sapiens, UniProt P13866); test: Sodium-dependent sugar uptake inhibition test in CHO-K1 cells stably expressing human SGLT1 (Test Example 2); type: cell-based; settings: [14C]methyl-α-D-glucopyranoside 0.1 mM, 37° C., 30 minutes
# T1 construct: expressed in transfected cells; host or cells: CHO-K1
# T1 sequence (P13866 1-664): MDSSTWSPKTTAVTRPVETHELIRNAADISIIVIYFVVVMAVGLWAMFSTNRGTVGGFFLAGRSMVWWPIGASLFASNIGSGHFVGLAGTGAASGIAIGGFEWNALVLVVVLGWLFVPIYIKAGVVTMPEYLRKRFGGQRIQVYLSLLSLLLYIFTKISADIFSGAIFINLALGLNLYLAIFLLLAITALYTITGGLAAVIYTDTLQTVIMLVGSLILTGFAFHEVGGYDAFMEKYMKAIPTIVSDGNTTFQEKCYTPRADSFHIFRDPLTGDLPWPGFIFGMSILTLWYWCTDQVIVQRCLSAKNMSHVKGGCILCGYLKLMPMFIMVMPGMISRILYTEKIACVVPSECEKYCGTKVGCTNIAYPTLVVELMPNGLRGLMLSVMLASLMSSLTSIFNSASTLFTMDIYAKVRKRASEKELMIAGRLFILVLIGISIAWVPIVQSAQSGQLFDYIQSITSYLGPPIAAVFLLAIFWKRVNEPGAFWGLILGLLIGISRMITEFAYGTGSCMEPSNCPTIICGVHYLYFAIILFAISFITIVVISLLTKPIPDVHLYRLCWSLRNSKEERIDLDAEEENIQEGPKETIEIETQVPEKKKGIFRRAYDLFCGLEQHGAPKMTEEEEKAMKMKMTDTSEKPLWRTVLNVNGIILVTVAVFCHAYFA
# Experimental: (§1) Human SGLT1 sequence (NM_000343) was reverse-transcripted from human small intestinal mRNA, then amplified, and then introduced into pCMV-tag5A from Stratagene Corporation. Human SGLT2 sequence (NM_003041) was prepared from human nephric mRNA as with the above method, and then introduced into pcDNA3.1+hygro from Invitrogen Corporation. Each cloned sequence was confirmed to be identical with the reported sequence.
# (§2) CHO-K1 cells were transfected with the human SGLT1 and human SGLT2 expression vectors using Lipofectamine 2000 (Invitrogen Corporation). SGLT expression cells were cultured in the presence of geneticin (SGLT1) or hygromycin B (SGLT2) of the concentration of 500 μg/mL to select resistant strains. Cells were obtained using sugar uptake specific activity as an index in the following system.
# (§3) Cells stably expressing human SGLT1 and human SGLT2 were used in the sodium-dependent sugar uptake activity inhibition test. Cells were incubated in 1 mL of a pretreatment buffer solution (140 mM choline chloride, 2 mM KCl, 1 mM CaCl2, 1 mM MgCl2, 10 mM HEPES/5 mM Tris, pH 7.4) for 20 minutes. The pretreatment buffer solution was removed and 200 μL of an uptake buffer containing test compounds (methyl-α-D-glucopyranoside containing [^14C]methyl-α-D-glucopyranoside (0.1 mM for SGLT1 inhibition, 1 mM for SGLT2 inhibition), 140 mM NaCl, 2 mM KCl, 1 mM CaCl2, 1 mM MgCl2, 10 mM HEPES/5 mM Tris, pH 7.4) were added, and uptake reaction was performed at 37° C. for 30 minutes (SGLT1) or for one hour (SGLT2). After the reaction, cells were washed with 1 mL of a washing buffer (10 mM methyl-α-D-glucopyranoside, 140 mM choline chloride, 2 mM KCl, 1 mM CaCl2, 1 mM MgCl2, 10 mM HEPES/5 mM Tris, pH 7.4) twice and dissolved in 400 μL of 0.2 M NaOH solution. After Aquazole 2 (Perkin Elmer Corporation) was added and mixed well, radioactivity was measured with a liquid scintillation counter (Beckman Coulter Corporation). A buffer for uptake which contained no test compound was prepared as a control group. Another buffer solution for uptake containing choline chloride in place of NaCl was also prepared for basic uptake.
# [2] = target: T2, Human SGLT2 (Homo sapiens, UniProt P31639); test: Sodium-dependent sugar uptake inhibition test in CHO-K1 cells stably expressing human SGLT2 (Test Example 2); type: cell-based; settings: for IC50: CHO-K1 cells, [14C]methyl-α-D-glucopyranoside 1 mM, 37° C., one hour; for SGLT1/SGLT2: ratio of IC50 human SGLT1 to IC50 human SGLT2
# T2 construct: expressed in transfected cells; host or cells: CHO-K1
# T2 sequence (P31639 1-672): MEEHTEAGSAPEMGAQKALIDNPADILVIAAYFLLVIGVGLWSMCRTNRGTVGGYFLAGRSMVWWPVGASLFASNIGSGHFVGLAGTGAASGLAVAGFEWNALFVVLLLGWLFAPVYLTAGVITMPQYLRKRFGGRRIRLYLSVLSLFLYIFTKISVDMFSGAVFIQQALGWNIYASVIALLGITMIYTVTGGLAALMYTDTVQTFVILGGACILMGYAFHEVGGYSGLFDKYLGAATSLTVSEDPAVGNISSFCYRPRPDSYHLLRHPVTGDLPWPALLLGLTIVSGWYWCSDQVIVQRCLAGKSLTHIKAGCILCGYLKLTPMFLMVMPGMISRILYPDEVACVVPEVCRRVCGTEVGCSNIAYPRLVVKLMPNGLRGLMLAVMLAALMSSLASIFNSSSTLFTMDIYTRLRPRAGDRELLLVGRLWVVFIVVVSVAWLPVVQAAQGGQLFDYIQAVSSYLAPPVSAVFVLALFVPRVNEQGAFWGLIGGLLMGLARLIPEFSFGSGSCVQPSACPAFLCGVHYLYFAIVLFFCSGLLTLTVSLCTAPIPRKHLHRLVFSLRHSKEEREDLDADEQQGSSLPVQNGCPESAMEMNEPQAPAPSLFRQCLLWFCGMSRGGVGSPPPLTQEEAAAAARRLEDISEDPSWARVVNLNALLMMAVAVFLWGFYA
# Experimental: as §1, §2, §3
melting point [°C],IC50 [1] [nM],IC50 [2] [nM],SGLT1/SGLT2 [2],Compound
177 to 179,,,,"CCOc1ccc(Cc2cc([C@@H]3S[C@H](CO)[C@@H](O)[C@H](O)[C@H]3O)c(OC)cc2Cl)cc1 (as salt: Na) [Compound 99, (1S)-1,5-anhydro-1-[4-chloro-5-(4-ethoxybenzyl)-2-methoxyphenyl]-1-thio-D-glucitol]"
100 to 102.5,,,,"CCc1ccc(Cc2cccc([C@@H]3S[C@H](COCc4ccccc4)[C@@H](OCc4ccccc4)[C@H](OCc4ccccc4)[C@H]3OCc3ccccc3)c2)cc1 [Compound 1, (1S)-1,5-anhydro-2,3,4,6-tetra-O-benzyl-1-[3-(4-ethylbenzyl)phenyl]-1-thio-D-glucitol]"
126 to 128,,,,CCOc1ccc(Cc2cc([C@@H]3S[C@H](COCc4ccccc4)[C@@H](OCc4ccccc4)[C@H](OCc4ccccc4)[C@H]3OCc3ccccc3)ccc2Cl)cc1 [Compound 3]
133 to 135,,,,COc1ccc([C@@H]2S[C@H](COCc3ccccc3)[C@@H](OCc3ccccc3)[C@H](OCc3ccccc3)[C@H]2OCc2ccccc2)cc1Cc1cc2ccccc2s1 [Compound 56]
140 to 143,,,,Clc1ccc([C@@H]2S[C@H](COCc3ccccc3)[C@@H](OCc3ccccc3)[C@H](OCc3ccccc3)[C@H]2OCc2ccccc2)cc1Cc1cc2ccccc2s1 [Compound 57]
72 to 76,1500,30,48.7,"CCOc1cc(F)c(Cc2cc([C@@H]3S[C@H](CO)[C@@H](O)[C@H](O)[C@H]3O)ccc2Cl)cc1F [Compound 83, (1S)-1,5-Anhydro-1-[4-chloro-3-(2,5-difluoro-4-ethoxybenzyl)phenyl]-1-thio-D-glucitol]"
73 to 81,2100,170,12.5,"CCOc1ccc(Cc2cc([C@@H]3S[C@H](CO)[C@@H](O)[C@H](O)[C@H]3O)ccc2Cl)cc1F [Compound 84, (1S)-1,5-Anhydro-1-[4-chloro-3-(3-fluoro-4-ethoxybenzyl)phenyl]-1-thio-D-glucitol]"
79 to 82,6100,1270,4.8,"CCOc1ccc(Cc2cc([C@@H]3S[C@H](CO)[C@@H](O)[C@H](O)[C@H]3O)ccc2Cl)cc1Cl [Compound 85, (1S)-1,5-Anhydro-1-[4-chloro-3-(3-chloro-4-ethoxybenzyl)phenyl]-1-thio-D-glucitol]"
186 to 190,4400,1520,2.9,"CCOc1ccc(Cc2cc([C@@H]3S[C@H](CO)[C@@H](O)[C@H](O)[C@H]3O)c(O)cc2O)cc1 [Compound 100, (1S)-1,5-Anhydro-1-[3-(4-ethoxybenzyl)-4,6-dihydroxyphenyl]-1-thio-D-glucitol]"
,3500,40,86.6,"CCc1ccc(Cc2cc([C@@H]3S[C@H](CO)[C@@H](O)[C@H](O)[C@H]3O)c(OC)cc2Cl)cc1 [Compound 102, (1S)-1,5-Anhydro-1-[4-chloro-3-(4-ethylbenzyl)-6-methoxyphenyl]-1-thio-D-glucitol]"
,23900,69,347.9,"COc1cc(Cl)c(Cc2ccc(C(C)C)cc2)cc1[C@@H]1S[C@H](CO)[C@@H](O)[C@H](O)[C@H]1O [Compound 103, (1S)-1,5-Anhydro-1-[4-chloro-3-(4-isopropylbenzyl)-6-methoxyphenyl]-1-thio-D-glucitol]"
,1000,34,29.8,"COc1cc(C)c(Cc2ccc(C)cc2)cc1[C@@H]1S[C@H](CO)[C@@H](O)[C@H](O)[C@H]1O [Compound 104, (1S)-1,5-Anhydro-1-[3-(4-methylbenzyl)-6-methoxy-4-methylphenyl]-1-thio-D-glucitol]"
,17000,93,182.5,"COc1cc(C)c(Cc2ccc(C(C)C)cc2)cc1[C@@H]1S[C@H](CO)[C@@H](O)[C@H](O)[C@H]1O [Compound 105, (1S)-1,5-Anhydro-1-[3-(4-isopropylbenzyl)-6-methoxy-4-methylphenyl]-1-thio-D-glucitol]"
159.5 to 160,12800,3000,4.3,"OC[C@H]1S[C@@H](c2cccc(Cc3cc4ccccc4s3)c2)[C@H](O)[C@@H](O)[C@@H]1O [Compound 129, (1S)-1,5-Anhydro-1-[3-[(1-benzothien-2-yl)methyl]-phenyl]-1-thio-D-glucitol]"
97.5 to 98,> 10000,2120,,"COc1ccc(Cc2cc3ccccc3s2)cc1[C@@H]1S[C@H](CO)[C@@H](O)[C@H](O)[C@H]1O [Compound 130, (1S)-1,5-Anhydro-1-[3-[(1-benzothien-2-yl)methyl]-6-methoxyphenyl]-1-thio-D-glucitol]"
,4100,890,4.7,"COc1cc(OC)c([C@@H]2S[C@H](CO)[C@@H](O)[C@H](O)[C@H]2O)cc1Cc1cc2ccccc2s1 [Compound 131, (1S)-1,5-Anhydro-1-[3-[(1-benzothien-2-yl)methyl]-4,6-dimethoxyphenyl]-1-thio-D-glucitol]"
,4400,497,8.9,"OC[C@H]1S[C@@H](c2ccc(Cl)c(Cc3cc4ccccc4o3)c2)[C@H](O)[C@@H](O)[C@@H]1O [Compound 132, (1S)-1,5-Anhydro-1-[3-[(1-benzofuran-2-yl)methyl]-4-chlorophenyl]-1-thio-D-glucitol]"
